Test results as given in EP0974362A1, “DRUGS CONTAINING ENZYME INHIBITORS AS THE ACTIVE INGREDIENT” (CHUGAI SEIYAKU KABUSHIKI KAISHA, priority 1997, dated 1998).
Read-outs that look alike come from different tables or passages of the source.

Experiments:
[1] = target: T1, adenylosuccinate synthase (Oryctolagus cuniculus, UniProt G1TGN8); assay: adenylosuccinate synthase inhibition (change of absorbance at 285 nm with time); format: biochemical
T1 sequence (G1TGN8 with tags, fused parts or gaps): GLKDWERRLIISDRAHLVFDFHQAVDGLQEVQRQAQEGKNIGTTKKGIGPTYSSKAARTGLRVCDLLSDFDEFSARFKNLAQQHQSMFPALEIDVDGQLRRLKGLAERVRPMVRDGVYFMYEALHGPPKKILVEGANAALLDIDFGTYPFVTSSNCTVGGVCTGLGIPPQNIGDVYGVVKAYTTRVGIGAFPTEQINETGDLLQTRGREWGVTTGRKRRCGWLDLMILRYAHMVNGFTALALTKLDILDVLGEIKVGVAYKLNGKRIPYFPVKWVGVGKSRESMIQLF
Description: As existing adenylosuccinate synthase inhibitors, hydantocidin-5'-monophosphate and hadacidin were chosen and compared for their level of enzyme inhibitory activity. Hydantocidin-5'-monophosphate was synthesized by debenzylating an intermediate synthesized by the method of Mio et al. (Tetrahedron, 47, 2133-2144, 1991), [2R, 3R, 4R, 5S]-6-N-acetyl-2-benzyloxymethyl-3,4-isopropylidene-1-oxa-6,8-diazaspiro[4,4]nonane-7,9-dione (Compound 24) and then converting it into its diphenyl phosphate ester, followed by deacetonidation, deacetylation and dephenylation by catalytic reduction. Hadacidin was synthesized by the method of Jahngen-Rossomand (Synth. Commun. 12, 601-606, 1982). Adenylosuccinate synthase was purified from rabbit muscles by the method of Fischer et al. (Methods in Enzymol. LI, 207-213). Each inhibitor (hydantocidin-5'-monophosphate or hadacidin at a final concentration of 1µM-1mM) (10 µl) and a substrate solution (50 mM HEPES, pH 7.3, 1 mM MgCl2, 0.2 mM GTP, 0.2 mM IMP, 2.5 mM Asp [each final concentration]) (60 µl) were added to adenylosuccinate synthase (10 µl) added dropwise into a microspectroscopic cell, and mixed together, then the microspectroscopic cell was immediately set in a spectrophotometer BECKMAN DU650 (Beckman) to determine change of absorbance at 285 nm with time for a period of 2 to 5 minutes after the reaction was started.

[2] = tested on: human glioma cell line T98G having MTAP activity; assay: cell growth, MTT method, 3 days incubation; format: cell-based; conditions: Fig. 4B
Experimental: (§1) Cell extracts were reacted with [8-^14C] MTA, a substrate for MTAP, and the reaction solutions were partially developed by thin-layer chromatography to visualize spots corresponding to [^14C] adenine produced by the action of MTAP in the presence of [8-^14C] […] The same experiment was performed as for Raji cells in Fig. 3 except that incubation was performed for 3 days. […] The same experiment was performed as for Raji cells in Fig. 3 except that incubation was performed for 3 days and that [^3H] thymidine uptake for 5 hours was assayed. […]
(§2) CCRF-CEM cells lacking MTAP activity and Raji cells having MTAP activity suspended in a modified MEM Zn^++ medium (GIBCO BRL) containing 10% dialyzed horse serum (GIBCO BRL) pretreated at 56°C for 30 minutes were plated on 96-well microplates at concentrations of 1.5 x 10^5 cells/ml and 5 x 10^4 cells/ml, respectively, and adenylosuccinate synthase inhibitors (hydantocidin-5'-monophosphate and hadacidin at a final concentration of 1 µM-1mM) were added to 100 µl/well in the presence or absence of a substrate for MTAP, MTA (final concentration 10 µM). After incubation in the presence of 5% CO2 at 37°C for 2 days, the survival cell number was counted by the MTT method (J. Immunol. Methods, 65, 55-63, 1983) (using Cell Titer 96® Aqueous Non-Radioactive Cell Proliferation Assay [Promega]) to assess effects on cell growth.

[3] = tested on: human glioma cell line A-172 lacking MTAP activity; assay: cell growth, MTT method, 3 days incubation; format: cell-based; conditions: Fig. 4A
Experimental: as §1, §2

[4] = tested on: Raji cells having MTAP activity; assay: cell growth, MTT method; format: cell-based, human
Experimental: as §2

[5] = tested on: CCRF-CEM cells lacking MTAP activity; assay: cell growth, MTT method; format: cell-based, human
Experimental: as §2

[6] = tested on: human pancreatic cancer cell line BxPC-3; assay: cell growth, [3H] thymidine uptake; format: cell-based; conditions: 3 days incubation; [3H] thymidine uptake for 5 hours; Fig. 5B
Experimental: as §1, §2

[7] = tested on: human non-small cell lung cancer cell line A549; assay: cell growth, [3H] thymidine uptake; format: cell-based; conditions: 3 days incubation; [3H] thymidine uptake for 5 hours; Fig. 5A
Experimental: as §1, §2

[8] = absence of MTA, compared with CCRF-CEM in presence of MTA, 2 days

IC50 ([1]; enzyme purified from rabbit muscles; 0.2 mM GTP, 0.2 mM IMP, 2.5 mM Asp, pH 7.3; read-out: IC50 (inhibited adenylosuccinate synthase activity)) [µM] | SMILES | IC50 ([1]; read-out: IC50 (inhibited adenylosuccinate synthase activity); enzyme purified from rabbit muscles; 0.2 mM GTP, 0.2 mM IMP, 2.5 mM Asp, pH 7.3) [µM] | toxicity [2] | toxicity [3] | cytotoxicity ([4]; MTA added (final concentration 10 µM), 2 days incubation) | level of cytotoxicity in the absence of MTA [4, 8] | IC50 ([5]; Homo sapiens, CCRF-CEM, 48 h, read-out: IC50 (cytotoxicity)) [µM] | level of cytotoxicity in the absence of MTA [5, 8] | growth inhibitory effects [6] | growth inhibitory effects [7]
10 | O=CN(O)CC(=O)O [hadacidin] | – | – | – | – | – | – | – | – | –
– | O=C1NC(=O)[C@@]2(N1)O[C@H](COP(=O)(O)O)[C@@H](O)[C@H]2O [hydantocidin-5'-monophosphate] | 0.03 | showed selective toxicity | showed selective toxicity | did not show cytotoxicity | comparable | 30 | comparable | showed growth inhibitory effects | showed growth inhibitory effects
